# Measured values as given in patent US11628151B2, “N,N-bis-2-mercaptoethyl isophthalamide for the treatment of neurodegenerative diseases” (EMERAMED LIMITED, priority 2014, dated 2023).
# Experiments:
# [1] = tested on: A549 and BEAS-2B cells; test: Particle-induced secretion of pro-inflammatory cytokines in lung epithelial cell lines (overall); type: cell-based
# Experimental: Secretion of the pro-inflammatory cytokines interleukin (IL)-6, IL-8 (as well as GM-CSF and MCP-1) into cell media in response to particle exposure was measured in A549 and BEAS-2B cells using the following method.
# Lung epithelial cells were seeded at 5×10^4 in 24-well plates. After pre-incubation with NBMI, the antioxidant compound, N-acetyl-L-cysteine (NAC), which was used as a positive control, or vehicle, for 3 hours the medium was removed.
# Fresh media containing various particles (as below) in different concentrations was in a total volume of 0.5 ml for an additional 24 hours. The supernatants were then separated from the cells by centrifugation.
# IL-8, IL-6, GM-CSF and MCP-1 were measured in the cell free fluid using the DuoSet ELISA Development kit (R&D Systems, Abingdon, UK) according to manufacturer's protocol.
# Exposure to medium only served as negative control. Each experiment was performed twice with 4 replicates.
# The effect of pre-incubation with 50 μM NBMI on particle-induced cytokine formation was tested at various concentrations of particles.
# [2] = biological target: T1, Aβ42 (Homo sapiens, UniProt P05067); test: Aggregation state of Aβ42 in media and cell lysate of primary microglia cultures (ELISA); type: cell-based; details: in the media and in the cell lysate, FIG. 3
# T1 construct: Aβ42 stock was solubilized in DMSO at a concentration of 2 mM; host or cells: added to primary microglia cultures
# Experimental: Aβ42 stock was solubilized in DMSO at a concentration of 2 mM, vortexed and sonicated for 2 minutes to ensure complete dissolution. Aβ42 was diluted in 50 mM NaPi, 100 mM NaCl (pH 7.4) buffer at a concentration of 200 μM and was used within 3 hours at a final concentration of 200 nM. TNF-α secretion from primary microglia and the BV2 cell line was valued by a specific sandwich-type enzyme-linked immunoabsorbent assay (ELISA) (Duoset, R&D system) according to the manufacturer's instructions. Intracellular concentration of Aβ42 was measured using a specific sandwich-type ELISA assay (human Aβ42 kit, Invitrogen, KHB3441 and mouse/rat, IBL 27721; Immuno-Biological Laboratories Co., Ltd., Japan) according to the manufacturer's instructions. Homogenization was performed with a cold 4× volume of PBS supplemented with the 1× protease inhibitor cocktail, followed by the addition of a solution 8.2 M guanidine/82 mM Tris HCl (pH 8.0) to yield a solution with a 5M final guanidine concentration.
# [3] = tested on: microglia; test: Internalization of Aβ42 by microglia; type: cell-based; details: following Aβ42 administration; FIG. 2B
# Experimental: (§1) Aβ42 stock was solubilized in DMSO at a concentration of 2 mM, vortexed and sonicated for 2 minutes to ensure complete dissolution. Aβ42 was diluted in 50 mM NaPi, 100 mM NaCl (pH 7.4) buffer at a concentration of 200 μM and was used within 3 hours at a final concentration of 200 nM.
# (§2) TNF-α secretion from primary microglia and the BV2 cell line was valued by a specific sandwich-type enzyme-linked immunoabsorbent assay (ELISA) (Duoset, R&D system) according to the manufacturer's instructions. Intracellular concentration of Aβ42 was measured using a specific sandwich-type ELISA assay (human Aβ42 kit, Invitrogen, KHB3441 and mouse/rat, IBL 27721; Immuno-Biological Laboratories Co., Ltd., Japan) according to the manufacturer's instructions.
# N9 cells were treated with 200 nM Aβ42488 (Anaspect), and AR internalization was recorded in culture for 24 hours after AR administration using a CelIR microscope, with the image processed using CelIR software.
# [4] = tested on: TNF-α; test: Primary microglia activation (TNF-α release, ELISA) following Aβ42 administration; type: cell-based; details: FIG. 2A
# Experimental: as §1
# (§3) After 10 days' incubation, neurons were used in experiments. Where indicated, cells were pre-treated for 30 minutes with NBMI (10 nM) added directly to the cell culture medium.
# as §2
# [5] = tested on: primary neurons incubated with oligomeric Aβ42; test: Aβ42-induced cell death in primary neurons co-cultured with N9 cells (MTT viability); type: cell-based, mice; details: primary neurons incubated with oligomeric Aβ42 (200 nM), NBMI 10 nM pre-treatment 30 minutes, FIG. 1
# Experimental: as §1
# Primary cultures of cortical neurons were prepared from the cerebral cortex of mice at embryonic stage 17 (E17). The cells from each cortex were seeded separately on poly-L-ornithine (Sigma) pre-coated 6-well plates at a density of 0.25×10^6 cells/cm^2 in Neurobasal media containing B27 supplement with antioxidant, 1% penstrep and 1% glutamine.
# as §3
# To determine cell viability, cells were washed with PBS (pH 7.4). MTT solution (3-(4,5-dimethylthiazol-2yl)-2,5-diphenyl tetrazolium bromide) was added to cells for 30 minutes at 37° C. After three washes, the insoluble formazan product was dissolved in dimethyl sulfoxide. The optical density of each culture well was then measured using a micro-plate reader (Molecular Probes, Garching, Germany) at 550 nm. The optical density of formazan formed in control cells was taken as 100% of viability. […]
# T1 sequence (P05067 672-713 limits assumed): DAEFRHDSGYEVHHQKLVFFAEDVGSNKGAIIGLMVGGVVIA
SMILES,secretion of inflammatory cytokines ([1]; pre-incubation with 5 mM NAC (positive control)),aggregation state of Aβ42 [2],internalization of Aβ42 by microglia [3],primary microglia activation (evaluated as TNF-α release) [4],"particle-induced secretion of pro-inflammatory cytokines ([1]; both cell lines (A549, BEAS-2B), pre-incubation with 50 μM NBMI)",Aβ42-induced cell death [5]
"CC(=O)N[C@@H](CS)C(=O)O [NAC, N-acetyl-L-cysteine, reference compound]",effective in reducing,,,,,
"O=C(NCCS)c1cccc(C(=O)NCCS)c1 [NBMI, N,N-bis-2-mercaptoethyl isophthalamide]",,changed,modulated,blocked,can reduce,reduced
